{"source": "patent US4292319A", "about": "“Antiphlogistic pharmaceutical compositions and method of use” (Boehringer Ingelheim GmbH, priority 1977, dated 1981)", "test_system": "gastro-intestinal side-effects caused by non-steroidal antiphlogistics", "experiment": "Clinical tests of suppression of gastro-intestinal side-effects by pirenzepine", "assay_type": "in vivo"}
{"smiles": "CN1CCN(CC(=O)N2c3ccccc3C(=O)Nc3cccnc32)CC1", "note": "[pirenzepine, 5,11-dihydro-11-[(4-methyl-1-piperazinyl)-acetyl]-6H-pyrido[2,3-b] [1,4] benzodiazepin-6-one]", "values": [{"measurement": "incompatibilities between pirenzepine and non-steroidal antiphlogistics", "setting": "combined administration", "result": "not observed any incompatibilities"}, {"measurement": "mucous membrane protection by single therapeutic doses at 12-hour intervals", "setting": "single therapeutic doses at 12-hour intervals", "result": "sufficient to assure round-the-clock mucous membrane protection"}]}
